Laboratory results as given in the supplement of paper PMC10307832.

Experiments:
Assay in all cases: relative viability (nuclei count vs DMSO), 5 days (fraction); higher = more cells survive
[1] = compound: CCC1=CN=CN=C1N2CCN(CC2)CC3=NC4=C(N3)C=C(C=C4)C(F)(F)F + CC(=O)Nc1cccc(-n2c(=O)n(C3CC3)c(=O)c3c(Nc4ccc(I)cc4F)n(C)c(=O)c(C)c32)c1 [Trametinib] (partner 0.02 µM)
Method in brief: (§1)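 Each reported value is a median over duplicate plates. It expresses relative viability: treated-well nuclei count divided by vehicle-well nuclei count. Lung cancer cell lines in 1536-well plates were dosed by pin tool a day after seeding, alone with one drug or with a fixed anchor-drug dose plus five library-drug doses (not always all listed) in √10 steps, and nuclei were counted after 5 days.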

[2] = compound: CCC1=CN=CN=C1N2CCN(CC2)CC3=NC4=C(N3)C=C(C=C4)C(F)(F)F + COc1cccc2cc(-c3nc([C@H]4CC[C@H](C(=O)O)CC4)n4ncnc(N)c34)[nH]c12 [OSI-027] (partner 0.5 µM)
Method in brief: as §1

Mirin + Linsitinib = compound: N=C1NC(=O)/C(=C/c2ccc(O)cc2)S1 [Mirin] + C[C@]1(O)C[C@@H](c2nc(-c3ccc4ccc(-c5ccccc5)nc4c3)c3c(N)nccn32)C1 [Linsitinib] (partner 1 µM)
Method in brief: as §1

Mirin + Tozasertib = compound: N=C1NC(=O)/C(=C/c2ccc(O)cc2)S1 [Mirin] + Cc1cc(Nc2cc(N3CCN(C)CC3)nc(Sc3ccc(NC(=O)C4CC4)cc3)n2)n[nH]1 [Tozasertib] (partner 0.1 µM)
Method in brief: as §1

Cell Line	relative viability ([1]; first compound 0.04 µM)	relative viability ([1]; first compound 0.1265 µM)	relative viability ([1]; first compound 0.4 µM)	relative viability ([1]; first compound 1.265 µM)	relative viability ([1]; first compound 4 µM)	relative viability ([2]; first compound 0.04 µM)	relative viability ([2]; first compound 0.1265 µM)	relative viability ([2]; first compound 0.4 µM)	relative viability ([2]; first compound 1.265 µM)	relative viability ([2]; first compound 4 µM)	relative viability (Mirin + Linsitinib; first compound 0.25 µM)	relative viability (Mirin + Linsitinib; first compound 0.7906 µM)	relative viability (Mirin + Linsitinib; first compound 2.5 µM)	relative viability (Mirin + Linsitinib; first compound 7.906 µM)	relative viability (Mirin + Linsitinib; first compound 25 µM)	relative viability (Mirin + Tozasertib; first compound 0.25 µM)	relative viability (Mirin + Tozasertib; first compound 0.7906 µM)	relative viability (Mirin + Tozasertib; first compound 2.5 µM)	relative viability (Mirin + Tozasertib; first compound 7.906 µM)	relative viability (Mirin + Tozasertib; first compound 25 µM)
HCC-15	0.36	0.392	0.372	0.368	0.369	0.622	0.651	0.621	0.563	0.599	0.791	0.849	0.897	0.779	0.534	0.336	0.344	0.359	0.202	0.177
HCC-44	1.06	0.994	1.02	0.963	0.915	0.479	0.446	0.532	0.416	0.406	0.64	0.789	0.703	0.711	0.501	1.06	0.433	0.93	0.824	0.404
HCC-78	0.843	0.712	0.628	0.577	0.562	0.347	0.37	0.359	0.381	0.372	0.537	0.585	0.519	0.445	0.475	0.409	0.492	0.386	0.337	0.33
HCC-366	0.344	0.372	0.349	0.285	0.269	0.789	0.898	0.939	0.297	0.911	0.677	0.468	0.903	0.644	0.316	0.15		0.602	0.0813	0.103
HCC-827	0.483	0.51	0.544	0.497	0.553	0.829	0.69	0.719		0.673	0.959	0.972	0.949	0.935	1.18	0.412	0.39	0.421	0.384	0.426
HOP-62	0.424	0.378	0.373	0.346	0.355	0.81	0.794	0.756	0.757	0.85	1.09	0.856	0.937		0.866	0.367	0.381	0.357	0.257	0.324
IA-LM											0.754	0.584	0.789		0.87					
LC-2-ad	0.976	0.814	0.938	0.921	0.871	0.826	0.908	0.913	0.69	0.791	0.816	1.03	0.937	0.833	0.732	0.459	0.35	0.476	0.342	0.256
